This is an account of results in patent US7700608B2, “Quinazoline derivatives and their use in the treatment of thrombocythemia” (Shire Holdings AG, priority 2004, dated 2010).

The subject of one assay is Cord blood CD34+ cells. Briefly: TPO-induced megakaryocytic maturation/differentiation of cord blood CD34+ cells in culture. In kind it is cell-based. The conditions noted are these: for inhibition at 0.03 µM: 30 nM, CD34+ cells grown with TPO in plasma-containing medium, vs. control, read-out: inhibition of megakaryocytic maturation (percentage of GPIIIa positive cells); for Cell expansion % of control / GPIIIa expression median fluorescence % of control / GPIIIa positive cells % of control / Relative cell size % of control: 1.0 μM, 12 days, plasma-containing medium with TPO, mean ± SE, n = 4; for concentration giving maximal effect on megakaryocyte maturation / IC50: TPO-induced maturation, FIG. 1; for IC50: mean of 2-4 independent experiments, read-out: IC50 against megakaryocyte maturation. On the procedure:
Chemicals. Compound #1 was kept at room temperature. Stock solutions (10 mM) were made in DMSO, or PBS pH 5. 0, as indicated. Stock solutions were diluted in culture medium immediately before addition to cell suspensions.
(§1) Cell culture and drug regimes. Cord blood CD34+ cells were purchased from Biowhittacker USA or were freshly isolated by immunomagnetic selection using standard laboratory procedures. Cells were seeded in 24-well tissue culture plates at a density of 0.15×10^6 cells/ml and cultured for 12-14 days in Iscove's modified Dulbecco's medium containing 40 ng/ml TPO (as described in Mathur A, Hong Y. Martin J F, Erusalimsky J D (2001) Megakaryocytic differentiation is accompanied by a reduction in cell migratory potential. Br J Haematol 112:459) with anagrelide, Compound #1, or vehicle (DMSO).
(§2) Cell counting. Cell density was determined using a Sysmex CDA-500 Particle Analyzer.
(§3) Analysis of megakaryocytic differentiation. CD61 expression (a marker of megakaryocytic differentiation) was quantified by flow cytometry using an anti-GPIIIa antibody. Cell diameter was determined using a Sysmex CDA-500 Particle Analyzer.

For assay [1], the system named is non-megakaryocytic cells (CD61-). Nature of the assay: Growth of non-megakaryocytic (CD61-) cells in the TPO-stimulated CD34+ cultures. The class given is cell-based. The conditions noted are these: 12-day cultures, FIG. 2. On the procedure: as §1, §2, §3
To assess whether the inhibitory activities of anagrelide and Compound #1 in these cultures were selective for the megakaryocytic lineage, the effects of these compounds were evaluated on the growth of the non-megakaryocytic cells. In 12-day control cultures these cells (CD61-) represent 20-30% of the total population.

SMILES strings stand for the structures.

Take `O=C1CN2Cc3c(ccc(Cl)c3Cl)N=C2N1` [Anagrelide]: in the assay with Cord blood CD34+ cells, the inhibition at 0.03 µM is 28%, the “Cell expansion % of control” value is 48.0 ± 4.0 % of control, the “GPIIIa expression median fluorescence % of control” value is on record as 51.3 ± 11.9 % of control and the “GPIIIa positive cells % of control” value was 41.9 ± 6.6 % of control. In addition, in the assay with Cord blood CD34+ cells, the “Relative cell size % of control” value is reported as 80.4 ± 4.5 % of control, the “concentration giving maximal effect on megakaryocyte maturation” value was found to be 1 µM and the IC50 lay within 110 to 130 nM. In assay [1], the “effect on growth of non-megakaryocytic cells (selectivity for megakaryocytic lineage)” value was “neither anagrelide nor Compound #1 inhibited the growth of non-megakaryocytic cells”.

As to `O=CC(=O)NC1=Nc2ccc(Cl)c(Cl)c2CN1` [Compound #1, N-(5,6-dichloro-3,4-dihydroquinazolin-2-yl)-2-oxoacetamide], in the assay with Cord blood CD34+ cells, the inhibition at 0.03 µM amounted to 20%, the “Cell expansion % of control” value is 45.8 ± 3.9 % of control, the “GPIIIa expression median fluorescence % of control” value is 54.4 ± 14.7 % of control and the “GPIIIa positive cells % of control” value is on record as 34.5 ± 4.4 % of control. In addition, in the assay with Cord blood CD34+ cells, the “Relative cell size % of control” value is listed as 78.7 ± 5.3 % of control, the “concentration giving maximal effect on megakaryocyte maturation” value is 1 µM and the IC50 is 110 to 130 nM. In addition, the “effect on growth of non-megakaryocytic cells (selectivity for megakaryocytic lineage)” value in assay [1] is “neither anagrelide nor Compound #1 inhibited the growth of non-megakaryocytic cells”.
